According to patent publication US20260055065A1, “PYRIDAZINONE COMPOUNDS WHICH MODULATE MUTANT PROTEINS FOR TREATING RESPIRATORY DISEASES” (The Hospital for Sick Children, priority 2022, published 2026):

Tests used:
Assay type in all cases: cell-based
F508del-CFTR = target: T1, F508del-CFTR (Homo sapiens, UniProt P13569, DEL508-508); test: Dose response, potentiation of forskolin-activated F508del-CFTR chloride channel activity in CFBE41o- cells (fluorescence membrane potential assay); conditions: low temperature (27 degrees Celsius) correction, read-out: potency in potentiating cyclic AMP dependent F508del-CFTR chloride channel activity
T1 construct: F508del-CFTR was endogenously expressed in CFBE41o^− cells; endogenous in cells; host or cells: CFBE41o-
T1 sequence (P13569 with tags, fused parts or gaps DEL508-508): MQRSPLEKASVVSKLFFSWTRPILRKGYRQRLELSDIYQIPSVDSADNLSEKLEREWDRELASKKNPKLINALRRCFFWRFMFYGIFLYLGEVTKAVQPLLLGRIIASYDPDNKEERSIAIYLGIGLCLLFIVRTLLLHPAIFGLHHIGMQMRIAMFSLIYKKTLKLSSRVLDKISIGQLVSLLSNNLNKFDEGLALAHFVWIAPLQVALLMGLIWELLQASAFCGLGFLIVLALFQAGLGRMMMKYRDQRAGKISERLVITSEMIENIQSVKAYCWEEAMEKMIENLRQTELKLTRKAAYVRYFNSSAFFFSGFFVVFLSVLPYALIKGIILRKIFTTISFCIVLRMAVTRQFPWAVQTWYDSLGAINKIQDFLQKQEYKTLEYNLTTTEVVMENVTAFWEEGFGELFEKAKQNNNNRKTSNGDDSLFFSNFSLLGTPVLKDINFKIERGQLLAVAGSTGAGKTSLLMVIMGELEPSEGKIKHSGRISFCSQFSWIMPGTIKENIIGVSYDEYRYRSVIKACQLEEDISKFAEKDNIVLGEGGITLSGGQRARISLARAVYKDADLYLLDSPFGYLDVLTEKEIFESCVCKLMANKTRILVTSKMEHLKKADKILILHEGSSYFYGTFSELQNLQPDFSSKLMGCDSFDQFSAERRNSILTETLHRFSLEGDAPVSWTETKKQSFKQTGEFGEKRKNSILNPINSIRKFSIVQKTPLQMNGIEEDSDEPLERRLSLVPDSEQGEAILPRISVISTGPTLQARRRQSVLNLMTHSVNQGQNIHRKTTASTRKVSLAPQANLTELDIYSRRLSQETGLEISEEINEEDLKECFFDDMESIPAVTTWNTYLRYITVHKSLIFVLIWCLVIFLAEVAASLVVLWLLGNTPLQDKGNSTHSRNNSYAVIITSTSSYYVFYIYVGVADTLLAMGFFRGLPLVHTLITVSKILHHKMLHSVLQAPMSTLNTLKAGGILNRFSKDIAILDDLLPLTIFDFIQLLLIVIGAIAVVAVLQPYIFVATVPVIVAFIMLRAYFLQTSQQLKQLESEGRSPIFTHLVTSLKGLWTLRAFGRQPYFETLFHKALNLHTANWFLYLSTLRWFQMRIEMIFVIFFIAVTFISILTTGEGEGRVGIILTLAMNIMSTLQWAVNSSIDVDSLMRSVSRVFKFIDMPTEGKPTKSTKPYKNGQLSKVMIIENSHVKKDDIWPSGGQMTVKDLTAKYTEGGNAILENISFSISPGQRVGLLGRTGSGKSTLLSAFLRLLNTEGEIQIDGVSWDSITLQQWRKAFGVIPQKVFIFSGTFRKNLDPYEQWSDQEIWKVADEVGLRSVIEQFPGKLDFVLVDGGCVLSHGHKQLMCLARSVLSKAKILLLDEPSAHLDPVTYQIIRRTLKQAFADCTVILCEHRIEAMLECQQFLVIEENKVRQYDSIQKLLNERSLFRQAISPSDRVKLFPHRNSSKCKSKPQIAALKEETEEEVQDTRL
Method: In these studies, F508del-CFTR was endogenously expressed in CFBE41o^− cells and it's trafficking defect corrected by low temperature (27 degrees Celsius) incubation. The fold increase in cyclic AMP dependent F508del-CFTR mediated chloride channel activity induced by potentiator treatment was determined using the fluorescence-based, membrane potential difference assay previously described.

[1] = test system: primary differentiated human bronchial epithelial cultures; test: Bead tracking assay of mucociliary movement, primary bronchial epithelial cultures exposed to cigarette smoke extract
Method: Compound 11 was tested in an in-vitro model of COPD. In this model, primary differentiated human bronchial epithelial cultures were exposed to cigarette smoke extract (4,5). Exposure to cigarette smoke extract (CSE) led to mucostasis and slowed mucociliary movement (FIG. 1(A) and (B)). […] Changes in mucociliary movement were determined as in our previous publication (7), i.e., by tracking the speed of fluorescent beads added to the surface of the airway cultures. The relative rescue effect of Compound 11 compared favourably relative to the competitor, the FDA approved CFTR potentiator marketed as Ivacaftor (VX-770).
Mature bronchial epithelial cultures, seeded on 24-well transwell inserts, derived from non-smoker donors of variable ages were received from the University of Iowa and cultured at air-liquid interface (ALI) using UltraG medium. A total of 6 inserts per donor were cultured, and all inserts from a single donor were selected to receive chronic drug and toxin treatment. Ahead of chronic treatment, cultures were subject to mucomist to reduce the volume and viscosity of the mucous layer ahead of imaging. Cultures were first washed twice with 200 uL HBSS (Wisent) applied apically to the transwell, each wash for 10 minutes at 37 degrees and 5% CO2. Cells were then incubated with 10 μM N-acetyl-cysteine (source?) dissolved in HBSS (Wisent) for 30 minutes, followed by a final HBSS wash as described previously. The toxin treatment consisted of either cigarette smoke extract (CSE) prepared in 100% DMSO (University of Alabama at Birmingham), dissolved at a concentration of 2% (v/v) in UltraG medium, with an equivalent concentration of DMSO alone serving as a control. The chronic drug treatment was co-applied with the toxin treatment, which included either VX-770 (Vertex) or SK-POT, aka Compound 11 (both prepared in 100% DMSO) dissolved in UltraG medium at a final concentration of 1 μm. There were a total of 6 chronic treatments, with each of the 6 inserts per donor receiving a different chronic treatment. Bronchial epithelia were incubated with the chronic treatment, applied apically, for 24 hours at 37 degrees C. and 5% CO2. After 24 hours, green fluorescent microspheres (brand?) dissolved in HBSS at a concentration of 0.05% (v/v) were applied apically; cultures were incubated with the microspheres for 45 minutes. The toxin and potentiator treatments were carried forth into the microsphere solution.
Inserts were then imaged at room temperature by epifluorescence microscopy (Zeiss or Olympus). The basic replicate of the assay consists of a 5-second video captured in the green channel and 40-60 frames per second; Z-position was adjusted ahead of each video to ensure beads in the airway surface liquid stratum immediately above the cilia were being captured. 5 videos were captured per insert/conditions, representing the centre and 4 corners of the insert. 2 sets of 5 videos were captured per insert/condition: one at baseline, and one 20 minutes following CFTR stimulation by forskolin at a concentration of 10 μM. Inserts were incubated at room temperature after forskolin addition.
Videos were captured using Volocity software and exported as one TIF file per frame. Frames were then re-compiled into complete videos using Arivis 4D software. Using an algorithm as previously described in Wu et al. 2017, microspheres were highlighted by adjusting two parameters: fluorescence intensity and diameter. […]

Wt-CFTR = Wt-CFTR (Homo sapiens, UniProt P13569); test: Calu-3 CSE experiments, FLiPR assay of CFTR channel activity; design: this airway epithelial cell line endogenously expresses this channel; endogenous in cells; host or cells: Calu-3
Wt-CFTR, sequence (P13569 whole entry): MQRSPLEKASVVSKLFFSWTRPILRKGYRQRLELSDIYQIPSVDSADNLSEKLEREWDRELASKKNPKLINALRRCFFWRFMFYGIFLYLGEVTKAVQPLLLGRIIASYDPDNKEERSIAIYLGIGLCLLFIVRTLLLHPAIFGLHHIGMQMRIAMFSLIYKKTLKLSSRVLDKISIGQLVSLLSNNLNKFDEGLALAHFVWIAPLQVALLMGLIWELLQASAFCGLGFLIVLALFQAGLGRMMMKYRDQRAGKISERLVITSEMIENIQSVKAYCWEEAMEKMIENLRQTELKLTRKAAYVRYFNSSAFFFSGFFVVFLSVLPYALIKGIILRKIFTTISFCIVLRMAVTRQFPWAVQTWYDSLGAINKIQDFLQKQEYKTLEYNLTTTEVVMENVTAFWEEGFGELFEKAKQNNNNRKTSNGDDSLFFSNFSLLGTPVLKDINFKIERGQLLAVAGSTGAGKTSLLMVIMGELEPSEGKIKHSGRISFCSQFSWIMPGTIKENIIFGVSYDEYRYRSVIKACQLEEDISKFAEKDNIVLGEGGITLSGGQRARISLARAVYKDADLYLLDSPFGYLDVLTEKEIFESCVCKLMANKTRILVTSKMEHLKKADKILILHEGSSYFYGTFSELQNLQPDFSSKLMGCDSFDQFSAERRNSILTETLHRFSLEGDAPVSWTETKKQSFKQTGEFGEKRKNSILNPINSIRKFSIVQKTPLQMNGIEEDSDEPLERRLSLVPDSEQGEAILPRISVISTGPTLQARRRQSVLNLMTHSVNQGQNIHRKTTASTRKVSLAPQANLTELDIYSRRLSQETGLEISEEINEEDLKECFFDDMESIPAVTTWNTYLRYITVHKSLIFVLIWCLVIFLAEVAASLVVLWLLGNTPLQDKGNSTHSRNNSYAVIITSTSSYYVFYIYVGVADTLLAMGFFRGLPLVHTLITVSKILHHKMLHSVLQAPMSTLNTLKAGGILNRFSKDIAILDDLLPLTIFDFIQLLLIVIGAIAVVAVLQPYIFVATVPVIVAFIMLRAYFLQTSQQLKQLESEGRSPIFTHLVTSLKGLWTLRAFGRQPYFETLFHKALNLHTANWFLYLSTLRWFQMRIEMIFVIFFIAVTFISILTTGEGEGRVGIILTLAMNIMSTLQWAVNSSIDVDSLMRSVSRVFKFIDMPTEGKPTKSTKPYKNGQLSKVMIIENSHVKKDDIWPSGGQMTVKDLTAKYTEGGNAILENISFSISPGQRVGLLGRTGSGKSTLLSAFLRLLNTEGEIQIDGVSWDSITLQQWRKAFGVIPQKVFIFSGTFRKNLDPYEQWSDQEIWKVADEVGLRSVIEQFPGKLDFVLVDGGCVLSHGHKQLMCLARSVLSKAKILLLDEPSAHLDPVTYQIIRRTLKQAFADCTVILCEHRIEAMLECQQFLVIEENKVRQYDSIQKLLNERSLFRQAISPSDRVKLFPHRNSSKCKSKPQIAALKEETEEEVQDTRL
Method: Addition of CFTR-inhibitor indicated with grey arrow. Superimposed, we show the effect of acute co-application of VX-770 (open squares) or SK-POT (open triangles) with forskolin. […] Only SK-POT rescued CFTR channel function in the presence of cigarette smoke extract.
Calu-3 cells were cultured using EMEM (Wisent) supplemented with FBS at 20% (v/v) and 1× Penicillin/Streptomycin (Wisent). Calu-3 cells were seeded on clear-bottom, black-walled 96 well plates (Costar, Corning) at a density of 10,000 cells/well and cultured for 2 days post-confluence. Cells then received the chronic treatment of toxin and potentiator. The toxin treatment consisted of either cigarette smoke extract (CSE) prepared in 100% DMSO (University of Alabama at Birmingham), dissolved at a concentration of 2% (v/v) in Calu-3 medium, with an equivalent concentration of DMSO alone serving as the toxin control. The chronic drug treatment was co-applied with the toxin, which included either VX-770 or Compound 11 (both prepared in 100% DMSO) dissolved in Calu-3 medium at a final concentration of 1 μm. VX-770 (Vertex) and Compound 11 solutions were prepared from 1 mM stocks. The control for the drug treatment was the vehicle, DMSO at an equivalent volume. Combining the two toxin treatments and three drug treatments, a total of six treatments were applied chronically to 4 wells per condition, for a total of 24 wells receiving chronic treatment.
Cells were cultured for an additional 24 hours after chronic treatment application, after which cells were incubated with FLiPR assay buffer. The FLiPR assay buffer consisted of blue FLiPR dye (Molecular Devices) dissolved at a concentration of 0.5 mg/mL in chloride-free buffer (150 mM NMDG, 150 mM gluconolactone, 3 mM potassium gluconate, 300 mOsm and pH 7.38). Buffer was incubated with cells at 37 degrees and 5% CO2 for 35 minutes. CFTR function was assessed by measuring changes in fluorescence activity after acute CFTR channel activation by addition of cAMP agonist forskolin dissolved in chloride-free buffer to a final concentration 1 μm, using the SpectraMax i3x multimodal plate reader. Fluorescence readings (excitation 530 nm; emission 560 nm) for each well were taken at 30-second intervals for 5 minutes (baseline) or 10 minutes (activation). CFTR activity was then terminated by addition of CFTR-inhibitor 172 dissolved in chloride-free buffer to a concentration of 10 μm, to further verify the specificity of the response to CFTR activity. Fluorescence changes were recorded at 30-second intervals for another 10 minutes. In analysis, all fluorescence values were normalized per well to the final reading prior to the addition of forskolin and expressed as a percentage of this reading.

wild-type human CFTR = target: T2, wild-type human CFTR (Homo sapiens, UniProt P13569); test: Cell-attached patch clamp of CFTR channel potentiation in HEK-293 cells; conditions: one active channel with forskolin alone
T2 construct: host or cells: HEK-293
T2 sequence (P13569 whole entry): as above
Method: HEK-293 cells stably expressing wild-type human CFTR in patch clamp studies of single channel activity were used. […] CFTR Cl^− channels were recorded in cell-attached membrane patches using an Axopatch 200A patch clamp amplifier and pCLAMP software (both from Molecular Devices, Sunnyvale, CA). The pipette and bath (extracellular) solutions contained 140 mm N-methyl-d-glucamine, 140 mm aspartic acid, 5 mm CaCl2, 2 mm MgSO4, and 10 mm TES, adjusted to pH 7.3 with Tris ([Cl^−]: 10 mM). The bath was maintained at room temperature.
In order to activate Wt-CFTR channels, 10 uM forskolin was added to the bath. […] To determine channel number, we used the maximum number of simultaneous channel openings observed during the experimental procedure. Single channel recordings were filtered and digitized data as described previously. To measure single-channel current amplitude, Gaussian distributions were fitted to current amplitude histograms. To measure Po, lists of open and closed times were created using a half-amplitude crossing criterion for event detection, and dwell time histograms were constructed and fitted. For the purpose of illustration, single-channel records were filtered at 500 Hz.

Compound	EC50 (F508del-CFTR) [nM]	mucostasis / bead velocity in CSE-treated cultures ([1]; CSE 2%, compound 1 μM for 24 hours, forskolin 10 μM)	bead velocity under control conditions ([1]; no CSE, compound added with vehicle for 24 hours)	forskolin-activated CFTR channel activity after CSE exposure (Wt-CFTR; Calu-3, CSE 2%, compounds 1 uM)	EC90 (Wt-CFTR; Calu-3, CFTR channel potentiation, read-out: approximate EC90) [nM]	number of active channels (wild-type human CFTR)
CC(C)(C)c1cc(C(C)(C)C)c(NC(=O)c2c[nH]c3ccccc3c2=O)cc1O [VX-770, reference compound]	32	a significant increase in the forskolin induced response in CSE-treated cultures after VX-770 addition was not observed	Neither VX-770 nor Compound 11 had any impact on bead velocity	only (SK-POT) treatment led to a significant increase	~1000	–
CFTRinh-172	–	–	–	–	–	significant decrease in the number of active channels
